Several values for one entry are separate records, joined by “and”; a condition that tells them apart may be missing. Identical values can stand only once. Inconclusive results and toxic doses are left out. Cut-off read from the data, not from the text of the source: active = T/C of 150% or more; inactive = T/C below 125%.
Test system: L1210 leukemia ip in BDF1 mice, survival T/C
Experiment: NCI In Vivo Anticancer Drug Screen. Data for tumor model L1210 Leukemia (intraperitoneal) in B6D2F1 (BDF1) mice
Details: higher = longer survival
Method in brief: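 Value reflects the ratio of survival in compound-treated mice to survival in vehicle-treated controls, with both groups carrying the same transplanted tumor.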

[1] = endpoint: mean survival time, dose: 100.0 mg/kg/injection, schedule: Q04DX003 (ip), vehicle: saline with Tween-80
[2] = endpoint: mean survival time, dose: 200.0 mg/kg/injection, schedule: Q04DX003 (ip), vehicle: saline with Tween-80
[3] = endpoint: mean survival time, dose: 100.0 mg/kg/injection, schedule: Q01DX009 (ip), vehicle: Klucel (hydroxypropylcellulose) (HPC)
[4] = endpoint: mean survival time, dose: 200.0 mg/kg/injection, schedule: Q01DX009 (ip), vehicle: Klucel (hydroxypropylcellulose) (HPC)
[5] = endpoint: mean survival time, dose: 100.0 mg/kg/injection, schedule: Q04DX002 (ip), vehicle: saline with Tween-80
[6] = endpoint: mean survival time, dose: 200.0 mg/kg/injection, schedule: Q04DX002 (ip), vehicle: saline with Tween-80
[7] = endpoint: mean survival time, dose: 100.0 mg/kg/injection, schedule: Q01DX001 (ip), vehicle: saline
[8] = endpoint: mean survival time, dose: 25.0 mg/kg/injection, schedule: Q04DX003 (ip), vehicle: saline with Tween-80
[9] = endpoint: mean survival time, dose: 50.0 mg/kg/injection, schedule: Q01DX009 (ip), vehicle: saline with Tween-80
[10] = endpoint: mean survival time, dose: 50.0 mg/kg/injection, schedule: Q04DX003 (ip), vehicle: saline with Tween-80
[11] = endpoint: mean survival time, dose: 100.0 mg/kg/injection, schedule: Q01DX001 (ip), vehicle: saline with Tween-80
[12] = endpoint: mean survival time, dose: 100.0 mg/kg/injection, schedule: Q01DX009 (ip), vehicle: saline with Tween-80

Measured: T/C

[I][Hg][CH2]C1COC([CH2][Hg][I])CO1 (centres undefined)
inactive: endpoint: mean survival time, dose: 6.25 mg/kg/injection, schedule: Q01DX010 (ip), vehicle: saline 98 % of control | endpoint: mean survival time, dose: 12.5 mg/kg/injection, schedule: Q01DX009 (ip), vehicle: saline 97 % of control and 100 % of control | endpoint: mean survival time, dose: 12.5 mg/kg/injection, schedule: Q01DX010 (ip), vehicle: saline 106 % of control | endpoint: mean survival time, dose: 25.0 mg/kg/injection, schedule: Q01DX009 (ip), vehicle: saline 96 % of control and 101 % of control | endpoint: mean survival time, dose: 25.0 mg/kg/injection, schedule: Q01DX010 (ip), vehicle: saline 110 % of control | endpoint: mean survival time, dose: 50.0 mg/kg/injection, schedule: Q01DX009 (ip), vehicle: saline 93 % of control and 92 % of control | endpoint: mean survival time, dose: 50.0 mg/kg/injection, schedule: Q01DX010 (ip), vehicle: saline 97 % of control | endpoint: mean survival time, dose: 100.0 mg/kg/injection, schedule: Q01DX009 (ip), vehicle: saline 93 % of control and 97 % of control | endpoint: median survival time, dose: 12.5 mg/kg/injection, schedule: Q01DX009 (ip), vehicle: saline 93 % of control | endpoint: median survival time, dose: 25.0 mg/kg/injection, schedule: Q01DX009 (ip), vehicle: saline 93 % of control | endpoint: median survival time, dose: 50.0 mg/kg/injection, schedule: Q01DX009 (ip), vehicle: saline 93 % of control

Oc1ccc(C=NCC2CCCC[N-]2)c(O)c1.Oc1ccc(C=NCC2CCCC[N-]2)c(O)c1.[Ni+2] (centres undefined)
inactive: [1] 95 % of control | [2] 87 % of control

O=C(c1ccc(Cl)cc1)c1nonc1C(=O)c1ccc(Cl)cc1
inactive: endpoint: mean survival time, dose: 100.0 mg/kg/injection, schedule: Q01DX001 (ip), vehicle: Klucel (hydroxypropylcellulose) (HPC) 100 % of control | [3] 98 % of control | endpoint: mean survival time, dose: 200.0 mg/kg/injection, schedule: Q01DX001 (ip), vehicle: Klucel (hydroxypropylcellulose) (HPC) 96 % of control | [4] 95 % of control | endpoint: mean survival time, dose: 400.0 mg/kg/injection, schedule: Q01DX001 (ip), vehicle: Klucel (hydroxypropylcellulose) (HPC) 100 % of control | endpoint: mean survival time, dose: 400.0 mg/kg/injection, schedule: Q01DX009 (ip), vehicle: Klucel (hydroxypropylcellulose) (HPC) 106 % of control

CC(/C=N/NC(=O)c1cnccn1)=N/NC(=O)c1cnccn1
inactive: endpoint: mean survival time, dose: 50.0 mg/kg/injection, schedule: Q01DX001 (ip), vehicle: water 108 % of control | endpoint: mean survival time, dose: 100.0 mg/kg/injection, schedule: Q01DX001 (ip), vehicle: water 108 % of control | endpoint: mean survival time, dose: 200.0 mg/kg/injection, schedule: Q01DX001 (ip), vehicle: water 103 % of control | endpoint: mean survival time, dose: 400.0 mg/kg/injection, schedule: Q01DX001 (ip), vehicle: water 110 % of control

SCCS
inactive: endpoint: mean survival time, dose: 50.0 mg/kg/injection, schedule: Q04DX002 (ip), vehicle: saline with Tween-80 101 % of control | [5] 101 % of control | [6] 86 % of control

Clc1cc(Cl)c(I)c(Cl)c1
inactive: [3] 95 % of control | endpoint: mean survival time, dose: 100.0 mg/kg/injection, schedule: Q04DX003 (ip), vehicle: Klucel (hydroxypropylcellulose) (HPC) 93 % of control | [4] 95 % of control | endpoint: mean survival time, dose: 200.0 mg/kg/injection, schedule: Q04DX003 (ip), vehicle: Klucel (hydroxypropylcellulose) (HPC) 95 % of control | endpoint: mean survival time, dose: 400.0 mg/kg/injection, schedule: Q04DX003 (ip), vehicle: Klucel (hydroxypropylcellulose) (HPC) 92 % of control

O=C1CCCCC1c1ccccc1 (centres undefined)
inactive: endpoint: mean survival time, dose: 50.0 mg/kg/injection, schedule: Q04DX002 (ip), vehicle: other 99 % of control | endpoint: mean survival time, dose: 100.0 mg/kg/injection, schedule: Q04DX002 (ip), vehicle: other 92 % of control | endpoint: mean survival time, dose: 100.0 mg/kg/injection, schedule: Q04DX003 (ip), vehicle: other 96 % of control | endpoint: mean survival time, dose: 200.0 mg/kg/injection, schedule: Q04DX002 (ip), vehicle: other 108 % of control | endpoint: mean survival time, dose: 200.0 mg/kg/injection, schedule: Q04DX003 (ip), vehicle: other 95 % of control | endpoint: mean survival time, dose: 400.0 mg/kg/injection, schedule: Q04DX002 (ip), vehicle: other 99 % of control | endpoint: mean survival time, dose: 400.0 mg/kg/injection, schedule: Q04DX003 (ip), vehicle: other 98 % of control

CCCCCCCCCCCCCCCC(=O)N1CCCN(C(=O)CCCCCCCCCCCCCCC)C1
inactive: endpoint: mean survival time, dose: 30.0 mg/kg/injection, schedule: Q01DX001 (ip), vehicle: saline 93 % of control | [7] 88 % of control | endpoint: mean survival time, dose: 300.0 mg/kg/injection, schedule: Q01DX001 (ip), vehicle: saline 94 % of control

O=C(O)Cc1cccc(S(=O)(=O)F)c1
inactive: [8] 96 % of control | [9] 109 % of control | [10] 99 % of control | [11] 96 % of control | [12] 111 % of control | [5] 91 % of control | [1] 99 % of control and 100 % of control | endpoint: mean survival time, dose: 200.0 mg/kg/injection, schedule: Q01DX001 (ip), vehicle: saline with Tween-80 92 % of control | endpoint: mean survival time, dose: 200.0 mg/kg/injection, schedule: Q01DX009 (ip), vehicle: saline with Tween-80 104 % of control | [6] 86 % of control | [2] 105 % of control | endpoint: mean survival time, dose: 400.0 mg/kg/injection, schedule: Q01DX001 (ip), vehicle: saline with Tween-80 100 % of control

O=C(CCl)OCCI
inactive: endpoint: mean survival time, dose: 6.25 mg/kg/injection, schedule: Q01DX009 (ip), vehicle: acetone 97 % of control | endpoint: mean survival time, dose: 12.5 mg/kg/injection, schedule: Q01DX009 (ip), vehicle: acetone 95 % of control | endpoint: mean survival time, dose: 25.0 mg/kg/injection, schedule: Q01DX009 (ip), vehicle: acetone 90 % of control | endpoint: mean survival time, dose: 25.0 mg/kg/injection, schedule: Q04DX003 (ip), vehicle: acetone 99 % of control | endpoint: mean survival time, dose: 35.0 mg/kg/injection, schedule: Q01DX009 (ip), vehicle: acetone 98 % of control | endpoint: mean survival time, dose: 55.0 mg/kg/injection, schedule: Q01DX009 (ip), vehicle: acetone 90 % of control | endpoint: mean survival time, dose: 80.0 mg/kg/injection, schedule: Q01DX009 (ip), vehicle: acetone 97 % of control | endpoint: mean survival time, dose: 100.0 mg/kg/injection, schedule: Q01DX001 (ip), vehicle: acetone 97 % of control

Oc1ccc2ccccc2c1C(c1ccccc1)N1CCOCC1 (centres undefined)
inactive: endpoint: mean survival time, dose: 100.0 mg/kg/injection, schedule: Q04DX002 (ip), vehicle: Klucel (hydroxypropylcellulose) (HPC) 88 % of control | endpoint: mean survival time, dose: 200.0 mg/kg/injection, schedule: Q04DX002 (ip), vehicle: Klucel (hydroxypropylcellulose) (HPC) 88 % of control | endpoint: mean survival time, dose: 400.0 mg/kg/injection, schedule: Q04DX002 (ip), vehicle: Klucel (hydroxypropylcellulose) (HPC) 101 % of control

CNC(=S)N/N=C/c1cnccn1
inactive: endpoint: mean survival time, dose: 50.0 mg/kg/injection, schedule: Q01DX001 (ip), vehicle: saline 100 % of control | [7] 100 % of control | endpoint: mean survival time, dose: 200.0 mg/kg/injection, schedule: Q01DX001 (ip), vehicle: saline 104 % of control

O=C1c2ccccc2C(=O)N1C1CCC(O)CC1 (centres undefined)
inactive: endpoint: mean survival time, dose: 25.0 mg/kg/injection, schedule: Q01DX009 (ip), vehicle: saline with Tween-80 101 % of control | [8] 107 % of control | [9] 93 % of control | [10] 102 % of control | [11] 103 % of control | [12] 103 % of control | [1] 102 % of control
